Data as given in patent publication EP2604265A1, “P2x7 antagonists as frontline or adjunctive treatment against status epilepticus” (Royal College of Surgeons in Ireland (RCSI), priority 2011, dated 2013).

Assays:
Adult male C57BL/6 mice = assay: Intra-amygdala KA-induced SE in mice, EEG, early post-treatment after seizure onset; assay type: in vivo; settings: i.c.v. 15 min after KA
Description: Adult male C57BL/6 mice (20-25 g) were obtained from Harlan UK (Blackthorn, UK). Mice were first anesthetized using isoflurane (3-5%) and maintained normothermic by means of a feedback-controlled heat blanket (Harvard Apparatus Ltd, Kent, UK). Mice were next placed in a stereotaxic frame and three partial craniectomies performed to affix cortical skull-mounted EEG electrodes (Bilaney Consultants Ltd, Sevenoaks, UK). EEG was recorded using a Grass Comet XL digital EEG (Medivent Ltd, Lucan, Ireland). A guide cannula was affixed (coordinates from Bregma: AP = 0.94; L = 2.85 mm) and the assembly fixed in place with dental cement. Anesthesia was then discontinued and freely moving mice were placed inside a clear perspex recording chamber. EEG recordings were commenced and after establishing baseline EEG for a few minutes, an injection cannula was lowered through the guide cannula for injection of kainic acid (KA) (Ocean Produce International, Nova Scotia, Canada) into the basolateral amygdala nucleus (0.3 µg in 0.2 µl phosphate-buffered saline). Non-seizure control mice underwent the same surgical procedure but received 0.2 µl intra-amygdala vehicle. Mice were killed at different time-points (1, 4, 8 or 24 h) later and perfused with saline to remove intravascular blood components. Brains were either flash-frozen whole in 2-methylbutane at […] or perfused with 4% PFA for histopathology, or dissected on ice to obtain whole hippocampus or microdissected to obtain the different hippocampal subfields (CA1, DG and CA3).
Digitized EEG recordings were analyzed off-line using manual assessment and automated software. The occurrence of high amplitude high frequency spiking during seizures is synonymous with injury-causing electrographic seizures during SE (also termed type IV electrographic seizures) (Lowenstein et al., 1991; Henshall et al., 2000). The duration of high-frequency (>5 Hz) high-amplitude (>2× baseline) polyspike discharges of ≥5 s duration (HAHFDs) was counted by a reviewer blind to treatment. Further EEG analysis was performed by uploading EEG into Labchart7 software (ADInstruments) to calculate the power spectral density (total power, a measure of the input signal's power (amplitude) over frequency) EEG spectrogram (spectral power against frequency and time).
A-438079 (3-[[5-(2,3-Dichlorophenyl)-1H-tetrazol-1-yl]methyl]pyridine hydrochloride) (50 µM) was from Tocris Biosciences (Bristol, U.K.) and the P2X7R specific antibody was from Alomone Labs (APR-008, Alomone Labs, Ltd, Jerusalem, Israel) and injected at 0.7 mg/ml. Lorazepam (Ativan®, Wyeth, Taplow, U.K.) (6 mg/kg) was administered intraperitoneally (i.p.) at 40 or 60 min after KA.
15 min after the injection of KA. […]

glutamate receptors = assay: Fura-2 calcium microfluorimetry, glutamate-evoked calcium entry; assay type: cell-based, mouse; settings: cultured hippocampal neurons; glutamate 100 µM; BBG 1 µM
Description: Hippocampal neurons were prepared as described previously (Diaz-Hernandez et al., 2008). Briefly, hippocampi were obtained from E17 mouse embryos and, after dissection and washing three times in Ca^2+/Mg^2+-free HBSS, tissue was digested in the same solution with 0.25% trypsin for 15 min at 37°C. Hippocampi were then washed three times in Ca^2+/Mg^2+-free HBSS and dissociated with a firepolished Pasteur pipette. Cells were counted, resuspended in plating medium (MEM, 10% fetal bovine serum, 0.6% glucose) and plated at a density of 5,000 cells/cm^2 on poly-L-lysine coated coverslips (1 mg/ml). After plating, neurons were cultured for 24-72 h in neuronal culture medium (Neurobasal, B-27, glutamax-I). For biochemical experiments, hippocampal neurons were plated on polylysine-coated (1 mg/ml) 60-mm plates at a density of 200,000 cells/cm^2, and cultured for 72 h in neuronal culture medium. AraC was added at a final concentration of 5 µM after 2 days in culture.
Calcium microfluorimetric analysis in single neurons was carried out according to (Diaz-Hernandez et al., 2001). […]
Neurons were visualized using a Plan Fluor x40 S/0.5-1.3 oil lens. […] The background was subtracted at each wavelength and the 340 / 380 ratio was calculated. The data are represented as the normalized F340/F380 fluorescence ratio, which increases as [Ca^2+]i increases.

| Compound | duration of HAHFDs (Adult male C57BL/6 mice; recorded until lorazepam at 40 min post-KA, vs vehicle) | Total seizure power (Adult male C57BL/6 mice; until 40 min post-KA, vs vehicle) | frequency of the EEG (Adult male C57BL/6 mice; vs vehicle) | seizure amplitude (Adult male C57BL/6 mice; spectral heat map during SE) | glutamate-induced calcium entry (glutamate receptors) |
| --- | --- | --- | --- | --- | --- |
| Cl.Clc1cccc(-c2nnnn2Cc2cccnc2)c1Cl [A-438079, 3-[[5-(2,3-Dichlorophenyl)-1H-tetrazol-1-yl]methyl]pyridine hydrochloride] | significantly reduced | significantly reduced | No changes | decreased |  |
| CCOc1ccc(Nc2ccc(C(=C3C=CC(=[N+](CC)Cc4cccc(S(=O)(=O)[O-])c4)C=C3C)c3ccc(N(CC)Cc4cccc(S(=O)(=O)O)c4)cc3C)cc2)cc1 [BBG, Brilliant Blue G] |  |  |  |  | failed to alter |
